From ChEMBL document CHEMBL1201862, “PubChem BioAssay data set” (2004)
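Each compound was tested at five concentrations against cells in 96-well plates for 48 hours. Abbreviation: GI50, concentration required for 50% inhibition of growth.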 Calls of active or inactive are those of the source. No stated cut-off is given here; in the data, active = GI50 up to about 1.1 µM and inactive = higher.

Tests used:
Experiment in all cases: NCI anticancer screen, dose series, 48 h
SNB-19 = test system: SNB-19
NCI-H522 = test system: NCI-H522
LOX IMVI = test system: LOX IMVI
U-251 = test system: U-251
CCRF-CEM = test system: CCRF-CEM
A549 = test system: A549
SW-620 = test system: SW-620
OVCAR-5 = test system: OVCAR-5
SK-MEL-5 = test system: SK-MEL-5
RPMI-8226 = test system: RPMI-8226
HCC 2998 = test system: HCC 2998
Malme-3M = test system: Malme-3M
HOP-92 = test system: HOP-92
K562 = test system: K562
SF-539 = test system: SF-539
EKVX = test system: EKVX

Measured: GI50

CN1NC(c2ccccc2)=C(C#N)C(=O)CC1c1ccccc1Cl (stereo not drawn)
inactive: SNB-19 > 100 µM | NCI-H522 65.2 µM | LOX IMVI > 100 µM | U-251 > 100 µM | CCRF-CEM > 100 µM | A549 > 100 µM | SW-620 > 100 µM | OVCAR-5 > 100 µM | SK-MEL-5 69.8 µM | RPMI-8226 > 100 µM | HCC 2998 > 100 µM | Malme-3M > 100 µM | HOP-92 > 100 µM

COC(=O)CC(=O)OC1C[C@@H]2CCC3C(C)(C)CCC[C@]3(C)C23CC[C@@]1(C)C3 (stereo partly drawn)
inactive: SNB-19 17.4 µM | NCI-H522 12.9 µM | LOX IMVI 17.8 µM | U-251 17.4 µM | CCRF-CEM > 100 µM | A549 24.5 µM | SW-620 18.2 µM | OVCAR-5 16.1 µM | SK-MEL-5 17.6 µM | RPMI-8226 45.9 µM | K562 > 100 µM | HCC 2998 19.8 µM | Malme-3M 17.9 µM | HOP-92 18 µM | SF-539 19.6 µM

O=Cc1ccc2c(c1I)OCO2
inactive: SNB-19 > 100 µM | NCI-H522 > 100 µM | LOX IMVI > 100 µM | U-251 > 100 µM | CCRF-CEM > 100 µM | A549 > 100 µM | SW-620 > 100 µM | OVCAR-5 > 100 µM | SK-MEL-5 > 100 µM | EKVX > 100 µM | RPMI-8226 > 100 µM | K562 > 100 µM | HCC 2998 > 100 µM | Malme-3M > 100 µM | SF-539 > 100 µM

COc1ccc(CN2CCC/C=C/CC(Cl)(Cl)C2=O)cc1
inactive: SNB-19 25.2 µM | NCI-H522 19.8 µM | LOX IMVI 39.3 µM | U-251 34.1 µM | CCRF-CEM 35.5 µM | A549 35 µM | SW-620 49.4 µM | OVCAR-5 42.7 µM | SK-MEL-5 18 µM | RPMI-8226 24.3 µM | K562 35.6 µM | HCC 2998 35.3 µM | Malme-3M 23.8 µM | HOP-92 14.5 µM | SF-539 33.6 µM

C=CSCCC(N)C(=O)O (stereo not drawn)
inactive: SNB-19 > 100 µM | NCI-H522 > 100 µM | LOX IMVI > 100 µM | U-251 > 100 µM | CCRF-CEM > 100 µM | A549 > 100 µM | SW-620 > 100 µM | OVCAR-5 > 100 µM | SK-MEL-5 > 100 µM | EKVX > 100 µM | K562 > 100 µM | HCC 2998 > 100 µM | Malme-3M > 100 µM | HOP-92 > 100 µM | SF-539 > 100 µM

COC(=O)CCC(=O)N1Cc2cc(C)ccc2N(C(=O)CCC(=O)OC)Cc2cc(C)ccc21
inactive: NCI-H522 > 100 µM | LOX IMVI > 100 µM | U-251 > 100 µM | CCRF-CEM > 100 µM | A549 > 100 µM | SW-620 > 100 µM | OVCAR-5 > 100 µM | SK-MEL-5 > 100 µM | EKVX > 100 µM | RPMI-8226 > 100 µM | K562 > 100 µM | HOP-92 > 100 µM | SF-539 > 100 µM

Fc1cccc(C2SCc3nc4ccccc4n32)c1 (stereo not drawn)
inactive: SNB-19 75.5 µM | NCI-H522 20.2 µM | CCRF-CEM 41.2 µM | A549 43.1 µM | SW-620 54.8 µM | OVCAR-5 17.3 µM | SK-MEL-5 12.7 µM | EKVX 32.4 µM | RPMI-8226 23.5 µM | K562 28.5 µM | HCC 2998 55.7 µM | Malme-3M 36.4 µM | HOP-92 12.5 µM | SF-539 > 100 µM

Cc1ccc2sc3cc(=O)cc(C)c-3nc2c1
inactive: SNB-19 40.8 µM | NCI-H522 20.3 µM | U-251 32.7 µM | CCRF-CEM 17.8 µM | A549 36.7 µM | SW-620 > 100 µM | OVCAR-5 > 100 µM | SK-MEL-5 16.6 µM | EKVX 38.6 µM | K562 18.6 µM | HCC 2998 50.4 µM | HOP-92 > 100 µM | SF-539 37.9 µM

c1ccc(P(=C2c3ccccc3-c3ccccc32)(c2ccccc2)c2ccccc2)cc1
inactive: SNB-19 4.67 µM | NCI-H522 1.6 µM | LOX IMVI 2.83 µM | U-251 3.05 µM | CCRF-CEM 2.51 µM | A549 7 µM | SW-620 3.37 µM | OVCAR-5 4.32 µM | SK-MEL-5 2.17 µM | EKVX 5.58 µM | K562 2.1 µM | HCC 2998 3.63 µM | Malme-3M 3.08 µM | HOP-92 2.75 µM | SF-539 11.5 µM

Nc1c(-c2cn(Cc3ccccc3)c3ccccc23)[n+]([O-])c2ccccc2[n+]1[O-]
inactive: SNB-19 36.6 µM | NCI-H522 13.2 µM | LOX IMVI 24.2 µM | U-251 32.5 µM | CCRF-CEM 27.1 µM | A549 30.8 µM | SW-620 51.4 µM | OVCAR-5 25.6 µM | SK-MEL-5 21.9 µM | EKVX 32.6 µM | RPMI-8226 24.6 µM | K562 24.5 µM | HCC 2998 35.8 µM | Malme-3M 29.7 µM | HOP-92 8.79 µM

O=c1[nH]c(=O)n(C2OC(CO)C(N(O)Cc3ccc(F)cc3)C2O)cc1Br (stereo not drawn)
inactive: SNB-19 > 100 µM | NCI-H522 13.2 µM | LOX IMVI > 100 µM | U-251 > 100 µM | CCRF-CEM > 100 µM | A549 > 100 µM | SW-620 > 100 µM | OVCAR-5 > 100 µM | SK-MEL-5 > 100 µM | EKVX > 100 µM | RPMI-8226 > 100 µM | K562 > 100 µM | HCC 2998 > 100 µM | HOP-92 > 100 µM | SF-539 > 100 µM

COc1cc2c(c(OC)c1OC)CCNC2C1=C(O)COC1=O (stereo not drawn)
inactive: SNB-19 > 100 µM | NCI-H522 > 100 µM | LOX IMVI > 100 µM | U-251 > 100 µM | CCRF-CEM > 100 µM | A549 > 100 µM | SW-620 > 100 µM | OVCAR-5 > 100 µM | SK-MEL-5 95.1 µM | RPMI-8226 88.3 µM | K562 > 100 µM | HCC 2998 > 100 µM | Malme-3M > 100 µM | HOP-92 > 100 µM | SF-539 > 100 µM

O=[N+]([O-])c1ccc(-c2noc(-c3ccc(Cl)cc3)c2C2=NCCN2)cc1
inactive: SNB-19 > 100 µM | NCI-H522 > 100 µM | LOX IMVI > 100 µM | U-251 > 100 µM | CCRF-CEM > 100 µM | A549 > 100 µM | SW-620 > 100 µM | OVCAR-5 > 100 µM | SK-MEL-5 > 100 µM | EKVX > 100 µM | RPMI-8226 > 100 µM | K562 > 100 µM | HCC 2998 > 100 µM | Malme-3M > 100 µM | SF-539 > 100 µM

N#C/C(=C1\OC(=O)C(c2ccc(Br)cc2)=C1O)c1ccc(Br)cc1
inactive: SNB-19 14.4 µM | NCI-H522 12.4 µM | LOX IMVI 15 µM | U-251 13.2 µM | CCRF-CEM 11.1 µM | A549 18 µM | SW-620 14.3 µM | OVCAR-5 19.1 µM | EKVX 17.5 µM | RPMI-8226 15.1 µM | K562 19.3 µM | HCC 2998 15.5 µM | Malme-3M 16.9 µM | HOP-92 16.1 µM | SF-539 16.1 µM
